According to US20130203718A1 (priority 2010, published 2013):

What was measured:
hMR = target: T1, hMR (Homo sapiens, UniProt P08235); assay: APRn selectivity: transactivation in HEK293T cells transiently expressing hMR; format: cell-based; conditions: mean±SEM; for MR Antagonist efficacy (%): aldosterone 10^−9 M
T1 construct: expressed in transfected cells; host or cells: HEK 293T
T1 sequence (P08235 1-984): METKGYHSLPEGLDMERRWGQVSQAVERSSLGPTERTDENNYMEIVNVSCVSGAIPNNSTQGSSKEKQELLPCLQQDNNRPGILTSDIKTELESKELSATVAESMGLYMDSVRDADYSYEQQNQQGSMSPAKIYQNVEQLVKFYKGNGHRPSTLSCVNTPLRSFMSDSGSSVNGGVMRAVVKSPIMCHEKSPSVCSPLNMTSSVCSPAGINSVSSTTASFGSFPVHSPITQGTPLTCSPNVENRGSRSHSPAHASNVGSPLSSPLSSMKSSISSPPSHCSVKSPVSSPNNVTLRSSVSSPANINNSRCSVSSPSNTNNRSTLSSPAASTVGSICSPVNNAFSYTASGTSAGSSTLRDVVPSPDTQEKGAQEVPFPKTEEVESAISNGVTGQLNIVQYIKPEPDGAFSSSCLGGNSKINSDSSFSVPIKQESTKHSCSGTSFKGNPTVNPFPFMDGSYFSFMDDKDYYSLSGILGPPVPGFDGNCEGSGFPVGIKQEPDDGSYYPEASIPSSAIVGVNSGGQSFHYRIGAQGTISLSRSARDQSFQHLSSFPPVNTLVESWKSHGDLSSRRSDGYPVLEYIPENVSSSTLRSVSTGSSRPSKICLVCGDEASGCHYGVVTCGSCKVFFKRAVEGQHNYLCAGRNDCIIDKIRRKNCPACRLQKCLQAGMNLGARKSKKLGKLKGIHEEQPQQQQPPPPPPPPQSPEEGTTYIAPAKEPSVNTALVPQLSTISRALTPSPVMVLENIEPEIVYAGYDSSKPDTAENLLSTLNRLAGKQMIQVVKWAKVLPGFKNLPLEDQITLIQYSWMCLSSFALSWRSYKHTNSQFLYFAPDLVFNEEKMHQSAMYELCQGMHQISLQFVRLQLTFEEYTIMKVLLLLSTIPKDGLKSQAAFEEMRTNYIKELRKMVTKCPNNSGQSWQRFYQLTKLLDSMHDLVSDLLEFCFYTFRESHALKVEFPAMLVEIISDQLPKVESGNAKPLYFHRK
Experimental: (§1) Measurement of the APRn Selectivity in HEK 293T.
(§2) The HEK-293T cells were cultured and transfected according to the method described above for the PR transactivation assays. The expression vectors pcDNA-hAR, kindly provided by G. A. Coetzee, pchGR (Hellal-Levy, C et al. FEBS Lett 1999, 464, 9), and pchMR (Fagart, J. et al. EMBO J. 1998, 17, 3317) were used for studying the ability of APRn to activate or inactivate the AR, GR and MR, respectively. For each transfection assays, 2 μg of the expression vector was used together with 7 μg of the GRE2-Luc reporter vector. Dihydrotestosterone (DHT), dexamethasone (Dex) and Aldosterone (Aldo) were selected as AR, GR and MR ligands, respectively. They were used at the concentration of 10^−9 M. The APRn agonist and antagonist efficacy for AR, GR and MR were measured as described above for PR. The results are the mean±SEM of three independent experiments.
(§3) Transfection assays were performed in HEK 293T cells by using expression vectors for the hAR, hGR and hMR and the GRE2-Luc reporter used for the PR transactivation assays.

hGR = target: T2, hGR (Homo sapiens, UniProt P04150); assay: APRn selectivity: transactivation in HEK293T cells transiently expressing hGR; format: cell-based; conditions: HEK293T transiently expressing hGR, mean±SEM; for GR Antagonist efficacy (%): dexamethasone 10^−9 M; for Emax: HEK-293T, read-out: GR Agonist efficacy (%)
T2 construct: expressed in transfected cells; host or cells: HEK 293T
T2 sequence (P04150 1-777): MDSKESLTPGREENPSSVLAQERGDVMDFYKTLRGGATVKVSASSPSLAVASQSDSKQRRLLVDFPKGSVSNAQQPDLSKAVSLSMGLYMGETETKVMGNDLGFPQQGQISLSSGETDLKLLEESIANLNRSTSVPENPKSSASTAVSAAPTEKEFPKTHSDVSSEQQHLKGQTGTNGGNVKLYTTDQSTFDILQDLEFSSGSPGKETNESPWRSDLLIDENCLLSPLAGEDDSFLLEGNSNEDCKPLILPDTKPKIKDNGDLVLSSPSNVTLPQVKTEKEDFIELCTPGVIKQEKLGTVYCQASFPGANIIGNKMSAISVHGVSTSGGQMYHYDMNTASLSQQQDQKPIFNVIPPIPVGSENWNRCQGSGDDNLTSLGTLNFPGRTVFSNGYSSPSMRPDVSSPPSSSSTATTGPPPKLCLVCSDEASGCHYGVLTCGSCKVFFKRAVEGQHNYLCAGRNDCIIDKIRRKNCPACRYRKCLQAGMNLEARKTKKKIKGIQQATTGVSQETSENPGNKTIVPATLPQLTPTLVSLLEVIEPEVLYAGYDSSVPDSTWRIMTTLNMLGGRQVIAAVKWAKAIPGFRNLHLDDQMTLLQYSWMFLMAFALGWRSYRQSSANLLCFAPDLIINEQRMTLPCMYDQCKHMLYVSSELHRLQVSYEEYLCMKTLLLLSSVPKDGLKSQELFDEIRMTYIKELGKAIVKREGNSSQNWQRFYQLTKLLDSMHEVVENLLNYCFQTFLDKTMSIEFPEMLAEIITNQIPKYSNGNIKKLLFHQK
Experimental: as §1, §2, §3

hAR = target: T3, hAR (Homo sapiens, UniProt P10275); assay: APRn selectivity: transactivation in HEK293T cells transiently expressing hAR; format: cell-based
T3 construct: expressed in transfected cells; host or cells: HEK 293T
T3 sequence (P10275 1-920): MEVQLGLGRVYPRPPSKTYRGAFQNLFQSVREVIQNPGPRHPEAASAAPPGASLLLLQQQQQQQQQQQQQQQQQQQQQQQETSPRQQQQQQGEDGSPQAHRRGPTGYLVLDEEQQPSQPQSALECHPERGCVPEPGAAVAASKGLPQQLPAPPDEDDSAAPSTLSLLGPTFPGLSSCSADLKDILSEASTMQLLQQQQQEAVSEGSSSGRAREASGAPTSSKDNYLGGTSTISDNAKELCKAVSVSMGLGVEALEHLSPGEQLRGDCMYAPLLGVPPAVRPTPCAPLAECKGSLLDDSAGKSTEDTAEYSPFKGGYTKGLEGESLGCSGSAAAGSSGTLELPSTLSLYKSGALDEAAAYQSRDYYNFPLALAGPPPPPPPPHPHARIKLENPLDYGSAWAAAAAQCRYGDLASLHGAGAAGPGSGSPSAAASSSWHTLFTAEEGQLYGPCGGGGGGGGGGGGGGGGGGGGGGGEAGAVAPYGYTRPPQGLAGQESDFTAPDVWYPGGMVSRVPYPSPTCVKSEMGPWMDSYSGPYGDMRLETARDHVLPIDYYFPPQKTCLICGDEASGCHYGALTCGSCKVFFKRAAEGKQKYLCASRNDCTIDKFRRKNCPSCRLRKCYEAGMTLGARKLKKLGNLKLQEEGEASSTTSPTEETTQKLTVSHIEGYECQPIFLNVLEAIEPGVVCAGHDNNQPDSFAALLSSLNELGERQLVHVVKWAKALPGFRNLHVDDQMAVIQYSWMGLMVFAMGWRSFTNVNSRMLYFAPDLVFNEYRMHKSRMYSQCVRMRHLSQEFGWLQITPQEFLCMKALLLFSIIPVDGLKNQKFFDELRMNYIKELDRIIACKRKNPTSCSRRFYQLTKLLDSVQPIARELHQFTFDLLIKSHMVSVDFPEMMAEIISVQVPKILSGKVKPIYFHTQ
Experimental: as §1, §2, §3

| Compound | MR Antagonist efficacy (%) (hMR) | MR Agonist efficacy (%) (hMR) | GR Antagonist efficacy (%) (hGR) | Emax (hGR) | melting point | agonist efficacy towards hAR (in words) (hAR; HEK293T, FIG. 11) | selectivity for hPR vs hAR, hGR and hMR (in words) (hAR; conclusion from hAR, hGR and hMR transactivation assays) |
| --- | --- | --- | --- | --- | --- | --- | --- |
| C[C@]12CC[C@H](F)C[C@@H]1CC[C@@H]1[C@@H]2CC[C@]2(C)[C@@H](O)CC[C@@H]12 [APR-40, 3β-Fluoro-5α-androstan-17β-ol] | 0.4 ± 2.6% | 0.57 ± 0.05% | 5.5 ± 3.9% | 0.3 ± 0.06% | 150 to 151 °C |  |  |
| CC(=O)[C@H]1CC[C@H]2[C@@H]3CC[C@H]4C[C@@H](F)CC[C@]4(C)[C@H]3CC[C@]12C [APR-17, 3β-Fluoro-5α-pregnan-20-one] |  |  |  |  | 154 to 155 °C | low agonist efficacy | selective hPR antagonists |
| CC#C[C@]1(O)CCC2C3CC=C4C[C@@H](F)CC[C@]4(C)C3CC[C@@]21C (stereo partly drawn) [APR-44, 31-Fluoro-17α-(1-propynyl)androst-5-en-17β-ol] | 1.6 ± 5.5% | 0.47 ± 0.10% | 2.0 ± 2.8% | 0.2 ± 0.1% | 136 to 137 °C |  |  |
